Measurements: US7625912B2, “Mitotic kinesin inhibitors” (Merck & Co. Inc, priority 2003, dated 2009)

Biological target: T1, human KSP motor domain (KSP(367H)) (Homo sapiens, UniProt P52732)
T1 construct: were used to amplify the motor domain and the neck linker region; made in house; host or cells: E. coli BL21 (DE3), pRSETa vector
T1 sequence (P52732 18-359 limits assumed): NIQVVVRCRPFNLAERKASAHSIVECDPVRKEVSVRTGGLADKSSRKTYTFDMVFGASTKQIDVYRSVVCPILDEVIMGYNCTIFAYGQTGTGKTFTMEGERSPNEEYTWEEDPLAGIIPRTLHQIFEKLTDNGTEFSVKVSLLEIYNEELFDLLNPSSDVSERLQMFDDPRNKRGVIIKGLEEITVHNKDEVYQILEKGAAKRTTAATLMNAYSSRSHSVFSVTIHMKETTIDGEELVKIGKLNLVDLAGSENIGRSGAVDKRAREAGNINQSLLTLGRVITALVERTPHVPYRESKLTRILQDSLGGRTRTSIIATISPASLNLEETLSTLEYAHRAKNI
Test: Kinesin ATPase in vitro assay
Format: biochemical
Conditions: microtubules, 1 mM ATP, 23° C.; free phosphate by quinaldine red/ammonium molybdate, absorbance 540 nm
Source text: I. Kinesin ATPase In Vitro Assay
Cloning and Expression of Human Poly-Histidine Tagged KSP Motor Domain (KSP(367H))
Plasmids for the expression of the human KSP motor domain construct were cloned by PCR using a pBluescript full length human KSP construct (Blangy et al., Cell, vol. 83, pp 1159-1169, 1995) as a template. The N-terminal primer 5′-[…] (SEQ.ID.NO.: 1) and the C-terminal primer 5′-[…] […] (SEQ.ID.NO.: 2) were used to amplify the motor domain and the neck linker region. The PCR products were digested with AseI and XhoI, ligated into the NdeL/XhoI digestion product of pRSETa (Invitrogen) and transformed into E. coli BL21 (DE3).
Cells were grown at 37° C. to an OD600 of 0.5. […]
The kinesin motor domain is incubated with microtubules, 1 mM ATP (1:1 MgCl2: Na-ATP), and compound at 23° C. in buffer containing 80 mM K-HEPES (pH 7.0), 1 mM EGTA, 1 mM DTT, 1 mM MgCl2, and 50 mM KCl. […] Free phosphate from the ATP hydrolysis reaction is measured via a quinaldine red/ammonium molybdate assay by adding 150 μl of quench C buffer containing a 2:1 ratio of quench A:quench B. Quench A contains 0.1 mg/ml quinaldine red and 0.14% polyvinyl alcohol; quench B contains 12.3 mM ammonium molybdate tetrahydrate in 1.15 M sulfuric acid. The reaction is incubated for 10 minutes at 23° C., and the absorbance of the phospho-molybdate complex is measured at 540 nm.

For Cc1ccc(-n2c(-c3ccccc3Br)nccc2=O)cc1F [1-4, 2-(2-bromophenyl)-3-(3-fluoro-4-methylphenyl)pyrimidin-4(3H)-one], the IC50 was ≤ 50 µM.
